System: patients with postpartum depression (PPD)
Experiment: Clinical trial of inhaled 5-MeO-DMT (individualized dosing regimen) in postpartum depression; one patient, 6 mg then 12 mg
Details: n=1; for BPRS Blunted affect improvement / BPRS Blunted affect score / BPRS Conceptual disorganization improvement / BPRS Conceptual disorganization score / BPRS Disorientation improvement / BPRS Disorientation score / BPRS Grandiosity improvement / BPRS Grandiosity score / BPRS Hallucinatory behaviour improvement / BPRS Hallucinatory behaviour score / BPRS Hostility improvement / BPRS Hostility score / BPRS Mannerisms and Posturing improvement / BPRS Mannerisms and Posturing score / BPRS Motor retardation improvement / BPRS Motor retardation score / BPRS Suspiciousness improvement / BPRS Suspiciousness score / BPRS Uncooperativeness improvement / BPRS Uncooperativeness score / BPRS Unusual Thought Content improvement / BPRS Unusual Thought Content score: baseline 1; for BPRS Excitement improvement / BPRS Excitement score: baseline 2; for BPRS Anxiety improvement / BPRS Anxiety score: baseline 7
Description: The single-arm, open-label clinical trial will involve 15 adult female patients with clinically diagnosed postpartum depression (PPD).
The second dose (12 mg) will only be administered if: • a. […] The 6 mg dose was safe and well-tolerated according to the investigator, • c. Any psychoactive effects (PsE) of the prior dose have subsided, and • d. Pre-dose vital parameters and forced expiratory volume in one second (FEV1) are in normal range, or if outside of the normal range, are not clinically significant according to the investigator. • 3. Similarly, a third dose (18 mg) will only be administered if: • a. […] The 12 mg dose was safe and well-tolerated according to the investigator, and • c. Any PsE of the prior dose have subsided, and • d. Pre-dose vital parameters and forced expiratory volume in one second (FEV1) are in normal range, or if outside of the normal range, are not clinically significant according to the investigator.
The patients will be assessed for a peak psychedelic experience (based on a patient-scored visual analogue scale, the PE scale), sedation, and other endpoints after dosing.
Follow-up visits are planned for Day 1, and Day 7 after the dosing day.
The following criteria must be met by all patients considered for clinical trial participation: • 1. Is female and in the age range between 18 and 45 years (inclusive) at screening. • 2. Has a body mass index (BMI) in the range of 18.5 and 35 kg/m^2 (inclusive) at screening. • 3. Meets the trial criteria for PPD as assessed by a trial psychiatrist or registered psychologist: • a. Diagnosis of Major Depressive Disorder without psychotic features, confirmed by the Mini-International Neuropsychiatric Interview (MINI), with peri-partum onset that began no earlier than gestation and no later than the first 4 weeks postpartum. • b. Has a Montgomery-Åsberg Depression Rating Scale (MADRS) total score of equal to or greater than 28 at screening and pre-dose on Day 0. • 6. […] Patients must have a negative pregnancy test at screening and on the pre-test day (Day −1). • 5. Is willing to delay start of other antidepressant or anxiety medication until after the end of the trial at Day 7 and agrees to keep any psychotherapy unchanged during the trial.
A potential patient who meets any of the following key exclusion criteria will be excluded from participation in this trial: • 1. Has, based on history, psychiatric assessment, and evaluation of the MINI, a current or prior diagnosis of bipolar disorder, a manic or hypomanic episode, a psychotic disorder, Major Depressive Disorder (MDD) or other mood disorder with psychotic features, obsessive compulsive disorder, post-traumatic stress disorder (PTSD), autism spectrum disorder, borderline personality disorder, schizophrenia, delusional disorder, paranoid personality disorder, schizoaffective disorder, clinically significant intellectual disability, or any other psychiatric comorbidity that renders the patient unsuitable for the trial according to the investigator's judgment. • 2. Has one or more first or second degree relatives with a current or previously diagnosed bipolar disorder, psychotic disorder or other mood disorder (including MDD) with psychotic features. • 3. Is in the judgement of a trial psychiatrist or registered psychologist, at significant risk for suicide based on history, psychiatric assessment, and evaluation of suicidal ideation and suicidal behaviour based on the Columbia-Suicide Severity Rating Scale (C-SSRS). • 4. Has taken anti-depressive medication within 14 days or 5 half-lives (whichever is longer) prior to dosing (exception: within the last 5 weeks in the case of fluoxetine). • 5.

COc1ccc2[nH]cc(CCN(C)C)c2c1 [5-MeO-DMT]
MADRS Suicidal Thoughts improvement (Day 7, baseline 0): 0 | MADRS Suicidal Thoughts score (Day 7, baseline 0): 0 | BPRS Blunted affect improvement (Day 7): 0 | BPRS Blunted affect score (Day 7): 1 | BPRS Conceptual disorganization improvement (Day 7): 0 | BPRS Conceptual disorganization score (Day 7): 1 | BPRS Disorientation improvement (Day 7): 0 | BPRS Disorientation score (Day 7): 1 | BPRS Grandiosity improvement (Day 7): 0 | BPRS Grandiosity score (Day 7): 1 | BPRS Hallucinatory behaviour improvement (Day 7): 0 | BPRS Hallucinatory behaviour score (Day 7): 1 | BPRS Hostility improvement (Day 7): 0 | BPRS Hostility score (Day 7): 1 | BPRS Mannerisms and Posturing improvement (Day 7): 0 | BPRS Mannerisms and Posturing score (Day 7): 1 | BPRS Motor retardation improvement (Day 7): 0 | BPRS Motor retardation score (Day 7): 1 | BPRS Suspiciousness improvement (Day 7): 0 | BPRS Suspiciousness score (Day 7): 1 | BPRS Uncooperativeness improvement (Day 7): 0 | BPRS Uncooperativeness score (Day 7): 1 | BPRS Unusual Thought Content improvement (Day 7): 0 | BPRS Unusual Thought Content score (Day 7): 1 | BPRS Excitement improvement (Day 7): 1 | BPRS Excitement score (Day 7): 1 | MADRS Inability to Feel improvement (Day 7, baseline 3): 3 | MADRS Inability to Feel score (Day 7, baseline 3): 0 | MADRS Lassitude improvement (Day 7, baseline 3): 3 | MADRS Lassitude score (Day 7, baseline 3): 0 | MADRS Pessimistic Thoughts improvement (Day 7, baseline 4): 4 | MADRS Pessimistic Thoughts score (Day 7, baseline 4): 0 | MADRS Reported sadness improvement (Day 7, baseline 4): 4 | MADRS Reported sadness score (Day 7, baseline 4): 0 | BPRS Emotional withdrawal improvement (Day 7, baseline 5): 4 | BPRS Emotional withdrawal score (Day 7, baseline 5): 1 | MADRS Apparent sadness improvement (Day 7, baseline 5): 5 | MADRS Apparent sadness score (Day 7, baseline 5): 0 | MADRS Inner Tension improvement (Day 7, baseline 5): 4 | MADRS Inner Tension score (Day 7, baseline 5): 1 | MADRS Reduced Sleep improvement (Day 7, baseline 5): 5 | MADRS Reduced Sleep score (Day 7, baseline 5): 0 | BPRS Depressive Mood improvement (Day 7, baseline 6): 5 | BPRS Depressive Mood score (Day 7, baseline 6): 1 | BPRS Guilt feelings improvement (Day 7, baseline 6): 5 | BPRS Guilt feelings score (Day 7, baseline 6): 1 | BPRS Somatic Concern improvement (Day 7, baseline 6): 5 | BPRS Somatic Concern score (Day 7, baseline 6): 1 | BPRS Tension improvement (Day 7, baseline 6): 5 | BPRS Tension score (Day 7, baseline 6): 1 | BPRS Anxiety improvement (Day 7): 6 | BPRS Anxiety score (Day 7): 1 | BIMF functional domain Adjustment % improvement (Day 7 vs Day 0): 20.00% | BIMF functional domain Adjustment Δ (Day 7 vs Day 0): 1 | BIMF functional domain Infant Care % improvement (Day 7 vs Day 0): 0.00% | BIMF functional domain Infant Care Δ (Day 7 vs Day 0): 0 | BIMF functional domain Management % improvement (Day 7 vs Day 0): 18% | BIMF functional domain Management Δ (Day 7 vs Day 0): 5 | BIMF functional domain Mother-Child Interaction Δ (Day 7 vs Day 0): 2 | BIMF functional domain Psychological Well-being Δ (Day 7 vs Day 0): 9 | BIMF functional domain Self-Care % improvement (Day 7 vs Day 0): 44% | BIMF functional domain Self-Care Δ (Day 7 vs Day 0): 4 | BIMF functional domain Social Support Δ (Day 7 vs Day 0): 1 | BIMF item 10 (I trust my own feelings (instincts) when taking care of my baby) Δ (Day 7 vs Day 0): 1 | BIMF item 11 (I take a little time each week to do something for myself) Δ (Day 7 vs Day 0): 1 | BIMF item 16 (I worry about how other people judge me (as a mother)) Δ (Day 7 vs Day 0): 2 | BIMF total score percentage improvement (Day 7 vs Day 0 (92 to 105)): 14% | BPRS Blunted affect improvement (Discharge): 0 | BPRS Blunted affect score (Discharge): 1 | BPRS Conceptual disorganization improvement (Discharge): 0 | BPRS Conceptual disorganization score (Discharge): 1 | BPRS Disorientation improvement (Discharge): 0 | BPRS Disorientation score (Discharge): 1 | BPRS Grandiosity improvement (Discharge): 0 | BPRS Grandiosity score (Discharge): 1 | BPRS Hallucinatory behaviour improvement (Discharge): 0 | BPRS Hallucinatory behaviour score (Discharge): 1 | BPRS Hostility improvement (Discharge): 0 | BPRS Hostility score (Discharge): 1 | BPRS Mannerisms and Posturing improvement (Discharge): 0 | BPRS Mannerisms and Posturing score (Discharge): 1 | BPRS Motor retardation improvement (Discharge): 0 | BPRS Motor retardation score (Discharge): 1 | BPRS Suspiciousness improvement (Discharge): 0 | BPRS Suspiciousness score (Discharge): 1 | BPRS Uncooperativeness improvement (Discharge): 0 | BPRS Uncooperativeness score (Discharge): 1 | BPRS Unusual Thought Content improvement (Discharge): 0 | BPRS Unusual Thought Content score (Discharge): 1 | BPRS Excitement improvement (Discharge): 1 | BPRS Excitement score (Discharge): 1 | BPRS Emotional withdrawal improvement (Discharge, baseline 5): 4 | BPRS Emotional withdrawal score (Discharge, baseline 5): 1 | BPRS Depressive Mood improvement (Discharge, baseline 6): 5 | BPRS Depressive Mood score (Discharge, baseline 6): 1 | BPRS Guilt feelings improvement (Discharge, baseline 6): 5 | BPRS Guilt feelings score (Discharge, baseline 6): 1 | BPRS Somatic Concern improvement (Discharge, baseline 6): 5 | BPRS Somatic Concern score (Discharge, baseline 6): 1 | BPRS Tension score (Discharge, baseline 6): 1 | BPRS Anxiety improvement (Discharge): 6 | BPRS Anxiety score (Discharge): 1 | Changes in vital parameters (shortly after administration): temporary, clinically non-relevant increase in heart rate and blood pressure
